Tests used:
human CYP1A2 = biological target: T1, human CYP1A2 (Homo sapiens, UniProt P05177)
T1 sequence (P05177 1-516): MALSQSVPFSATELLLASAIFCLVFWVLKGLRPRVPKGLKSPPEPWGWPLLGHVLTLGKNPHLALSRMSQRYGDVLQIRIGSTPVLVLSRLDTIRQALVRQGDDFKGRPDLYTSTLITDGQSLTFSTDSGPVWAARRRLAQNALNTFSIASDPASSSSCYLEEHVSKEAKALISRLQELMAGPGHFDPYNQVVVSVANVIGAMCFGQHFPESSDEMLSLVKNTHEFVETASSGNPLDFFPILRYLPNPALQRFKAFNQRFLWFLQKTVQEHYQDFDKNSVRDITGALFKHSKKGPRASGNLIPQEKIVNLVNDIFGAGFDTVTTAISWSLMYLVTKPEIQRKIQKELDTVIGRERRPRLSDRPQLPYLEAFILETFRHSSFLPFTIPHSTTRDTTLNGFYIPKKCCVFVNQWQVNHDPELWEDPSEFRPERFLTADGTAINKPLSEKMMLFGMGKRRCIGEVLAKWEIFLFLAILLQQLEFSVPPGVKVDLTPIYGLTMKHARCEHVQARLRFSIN

human CYP2C9 = human CYP2C9 (Homo sapiens, UniProt P11712)
human CYP2C9, sequence (P11712 whole entry): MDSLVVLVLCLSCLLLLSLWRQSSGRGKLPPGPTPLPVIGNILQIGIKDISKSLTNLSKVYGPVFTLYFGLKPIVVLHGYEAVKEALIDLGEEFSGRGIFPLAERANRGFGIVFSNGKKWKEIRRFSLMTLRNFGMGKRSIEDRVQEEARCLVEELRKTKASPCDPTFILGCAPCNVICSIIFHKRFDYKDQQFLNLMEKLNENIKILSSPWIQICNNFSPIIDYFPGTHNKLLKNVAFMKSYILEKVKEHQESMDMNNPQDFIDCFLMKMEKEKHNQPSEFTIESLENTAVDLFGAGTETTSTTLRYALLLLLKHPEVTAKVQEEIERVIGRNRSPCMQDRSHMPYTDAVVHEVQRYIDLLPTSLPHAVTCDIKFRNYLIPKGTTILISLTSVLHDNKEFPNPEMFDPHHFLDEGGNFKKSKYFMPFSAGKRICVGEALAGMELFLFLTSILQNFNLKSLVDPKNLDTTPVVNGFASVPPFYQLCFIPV

human CYP2C19 = human CYP2C19 (Homo sapiens, UniProt P33261)
human CYP2C19, sequence (P33261 whole entry): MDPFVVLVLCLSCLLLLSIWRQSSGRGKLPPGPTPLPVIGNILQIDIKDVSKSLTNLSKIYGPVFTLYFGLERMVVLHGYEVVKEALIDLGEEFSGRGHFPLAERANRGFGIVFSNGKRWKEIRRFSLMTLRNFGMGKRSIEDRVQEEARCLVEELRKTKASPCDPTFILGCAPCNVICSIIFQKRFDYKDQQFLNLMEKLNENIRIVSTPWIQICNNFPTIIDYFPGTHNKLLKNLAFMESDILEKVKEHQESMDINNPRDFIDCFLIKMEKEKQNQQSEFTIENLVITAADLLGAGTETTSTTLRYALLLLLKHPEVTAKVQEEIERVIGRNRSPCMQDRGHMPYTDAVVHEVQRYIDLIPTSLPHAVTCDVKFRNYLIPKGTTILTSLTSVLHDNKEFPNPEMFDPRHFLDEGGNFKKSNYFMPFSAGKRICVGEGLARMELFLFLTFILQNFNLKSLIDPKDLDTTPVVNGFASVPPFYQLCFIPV

human CYP2D6 = human CYP2D6 (Homo sapiens, UniProt P10635)
human CYP2D6, sequence (P10635 whole entry): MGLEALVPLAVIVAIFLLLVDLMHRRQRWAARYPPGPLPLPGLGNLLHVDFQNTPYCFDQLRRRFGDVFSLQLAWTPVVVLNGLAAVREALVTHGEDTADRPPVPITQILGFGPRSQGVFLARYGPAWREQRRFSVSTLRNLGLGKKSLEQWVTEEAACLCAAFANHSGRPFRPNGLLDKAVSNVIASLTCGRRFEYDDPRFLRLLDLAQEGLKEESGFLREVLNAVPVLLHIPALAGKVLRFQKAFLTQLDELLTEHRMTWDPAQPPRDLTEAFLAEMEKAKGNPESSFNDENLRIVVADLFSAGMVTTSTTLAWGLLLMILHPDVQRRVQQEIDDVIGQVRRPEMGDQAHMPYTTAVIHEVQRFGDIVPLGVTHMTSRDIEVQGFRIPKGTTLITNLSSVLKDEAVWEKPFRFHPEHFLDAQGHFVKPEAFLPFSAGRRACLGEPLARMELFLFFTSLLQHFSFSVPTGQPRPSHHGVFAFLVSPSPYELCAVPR

CYP3A4 = CYP3A4 (Homo sapiens, UniProt P08684)
CYP3A4, sequence (P08684 whole entry): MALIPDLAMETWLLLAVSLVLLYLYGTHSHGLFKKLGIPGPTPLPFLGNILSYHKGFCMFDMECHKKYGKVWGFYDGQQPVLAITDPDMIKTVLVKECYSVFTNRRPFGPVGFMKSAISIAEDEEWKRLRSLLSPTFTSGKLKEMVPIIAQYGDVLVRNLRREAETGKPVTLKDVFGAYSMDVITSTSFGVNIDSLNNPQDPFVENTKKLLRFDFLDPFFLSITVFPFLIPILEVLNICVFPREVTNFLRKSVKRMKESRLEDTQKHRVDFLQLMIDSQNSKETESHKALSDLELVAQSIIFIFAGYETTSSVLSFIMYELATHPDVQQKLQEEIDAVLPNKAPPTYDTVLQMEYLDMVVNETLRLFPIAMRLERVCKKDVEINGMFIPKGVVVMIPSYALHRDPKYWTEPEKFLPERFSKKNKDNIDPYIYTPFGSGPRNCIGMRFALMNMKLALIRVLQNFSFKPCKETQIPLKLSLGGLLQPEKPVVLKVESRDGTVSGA

| Structure (SMILES) | AC50 (human CYP1A2) [µM] | CYP2C9 AC50 (half-maximal activity concentration) (human CYP2C9) | CYP2C19 AC50 (half-maximal activity concentration) (human CYP2C19) | CYP2D6 AC50 (half-maximal activity concentration) (human CYP2D6) | AC50 (CYP3A4) [µM] | AC50 (human CYP2C9) [µM] | AC50 (human CYP2C19) [µM] | AC50 (human CYP2D6) [µM] | CYP3A4 AC50 (half-maximal activity concentration) (CYP3A4) | CYP1A2 AC50 (half-maximal activity concentration) (human CYP1A2) |
| --- | --- | --- | --- | --- | --- | --- | --- | --- | --- | --- |
| CC(=O)c1cc2ccccc2s1 [2-Acetylbenzo[b]thiophene] | 6.92 | Inactive | Inactive | Inactive | 24.6 |  |  |  |  |  |
| Nc1ccc(Cl)cc1C(=O)c1ccccc1F [2-Amino-5-chloro-2'-fluorobenzophenone] | 14.4 |  |  | Inactive | 8.75 | 16.1 | 11.9 |  |  |  |
| CC(C)NC(=O)c1ccccc1N [2-Amino-N-(1-methylethyl)benzamide] | 51.1 | Inactive |  | Inactive | 35.7 |  | 3.36 |  |  |  |
| NC(=O)Nc1nc2ccccc2[nH]1 [2-Benzimidazolylurea] | 47.2 |  |  |  | 47.5 | 60.5 | 47.2 | 34.2 |  |  |
| Brc1nc2ccccc2s1 [2-Bromobenzothiazole] | 11.1 | Inactive | Inactive | Inactive | 45.5 |  |  |  |  |  |
| CCCCN1C(=O)c2ccccc2C1=O [2-Butyl-1H-isoindole-1,3(2H)-dione] | 2.03 |  |  | Inactive | 25.6 | 50.6 | 26.6 |  |  |  |
| Cc1cc(O)c(Cl)cc1C [2-Chloro-4,5-dimethylphenol] | 27.7 |  |  | Inactive |  | 34.3 | 61.8 |  | Inactive |  |
| CCCCCCCCC(CCCCCC)C(=O)O (stereo not drawn) [2-Hexyldecanoic acid] |  |  |  | Inactive | 65.1 | 26.2 | 34.3 |  |  | Inactive |
| CCCCCC=CCC1CC(=O)OC1=O (stereo not drawn) [2-Octen-1-ylsuccinic anhydride] | 31.9 | Inactive |  | Inactive | 31.9 |  | 55 |  |  |  |
| O=C(C=Cc1ccccc1)OCCc1ccccc1 [2-Phenylethyl 3-phenylprop-2-enoate] | 6.35 |  |  | Inactive | 15.7 | 25.6 | 20.8 |  |  |  |
| O=C(O)c1cc(Br)c(O)c(Br)c1 [3,5-Dibromo-4-hydroxybenzoic acid] | 35.7 |  |  | Inconclusive inhibitor | 35.7 | 68.4 | 23.8 |  |  |  |
| O=C(Cl)c1cc(Cl)cc(Cl)c1 [3,5-Dichlorobenzoyl chloride] |  | Inconclusive inhibitor | Inconclusive inhibitor | Inactive | 50.2 |  |  |  |  | Inactive |
| OCC(CBr)(CBr)CBr [3-Bromo-2,2-bis(bromomethyl)propanol] |  |  |  | Inactive |  | 40.5 | 38.3 |  | Inactive | Inactive |
| O=C(Cl)c1ccc(F)c(Cl)c1 [3-Chloro-4-fluorobenzoyl chloride] |  | Inactive | Inconclusive inhibitor | Inconclusive inhibitor | 55.5 |  |  |  |  | Inactive |
| O=C(c1ccccc1)c1cccc(O)c1 [3-Hydroxybenzophenone] | 36.2 |  |  |  |  | 3.99 | 23.9 | 54.1 | Inactive |  |
| OCc1cccc(Oc2ccccc2)c1 [3-Phenoxybenzenemethanol] | 38.5 |  |  | Inconclusive inhibitor | 64.4 | 55.8 | 24.7 |  |  |  |
| O=C(C=Cc1ccccc1)OCCCc1ccccc1 [3-Phenylpropyl cinnamate] | 12.2 |  |  | Inactive | 25.2 | 19.4 | 30.1 |  |  |  |
| CCCCCCCCCCCSCC(=O)O [3-Thiatetradecanoic acid] |  |  | Inconclusive inhibitor |  | 87.3 | 45.2 |  | 20.6 |  | Inconclusive inhibitor |
| Nc1ccc([N+](=O)[O-])c(C(F)(F)F)c1 [3-Trifluoromethyl-4-nitroanilide] | 8.83 |  |  | Inactive |  | 39.1 | 12.9 |  | Inactive |  |
| CC(C)(C)c1ccc(C(=O)CCCCl)cc1 [4'-Tert-butyl-4-chlorobutyrophenone] | 12 | Inactive | Inactive | Inactive | 21.9 |  |  |  |  |  |
| O=C(Nc1ccc([N+](=O)[O-])cc1)Nc1ccc([N+](=O)[O-])cc1 [4,4'-Dinitrodiphenylurea] |  | Inactive | Inactive | Inactive | 11 |  |  |  |  | Inactive |
| CCC(C)(C)C1CCC(O)CC1 (stereo not drawn) [4-(2-Methylbutan-2-yl)cyclohexanol] |  | Inactive | Inactive | Inactive | 9.66 |  |  |  |  | Inconclusive inhibitor |
| CCN(CC)c1ccc(C=O)c(O)c1 [4-(Diethylamino)salicylaldehyde] | 16.4 |  |  | Inactive |  | 22.8 | 50.6 |  | Inactive |  |
| CC(C)CC(O)Cc1ccccc1 (stereo not drawn) [4-Methyl-1-phenyl-2-pentanol] | 37 | Inconclusive inhibitor |  | Inactive | 34.3 |  | 37 |  |  |  |
| O=C1OC(=O)c2cc(Oc3ccc4c(c3)C(=O)OC4=O)ccc21 [5,5'-Oxybis(2-benzofuran-1,3-dione)] |  | Inactive | Inconclusive inhibitor | Inactive | 30.8 |  |  |  |  | Inactive |
| CCc1cnc(C(=O)O)c(C(=O)O)c1 [5-Ethyl-2,3-pyridinedicarboxylic acid] |  | Inactive | Inactive | Inconclusive inhibitor | 20.6 |  |  |  |  | Inactive |
| Cc1ccc([N+](=O)[O-])c(N)c1 [5-Methyl-2-nitroaniline] | 19.2 |  |  | Inactive | 13.9 | 49.9 | 39.6 |  |  |  |

From article PMC12155096 (International Journal of Molecular Sciences, 2025)
